Measured values reported in patent publication US20230330280A1, “PREPARATIONS OF RADIUM-224 AND PROGENIES FOR USE IN RADIONUCLIDE THERAPY IN COMBINATION WITH DNA REPAIR INHIBITORS” (priority 2020, published 2023).
Like-named read-outs stand apart in the source and are kept apart here.

Experiments:
[1] = tested on: SKOV-3 (adenocarcinoma) ovarian cancer cell line; experiment: CyQuant NF cell proliferation assay (DNA content), single agents and paired combinations, SKOV-3; type: cell-based; conditions: Homo sapiens
Description: (§1) Ovarian cancer cell lines: ES-2 (clear cell carcinoma) and SKOV-3 (adenocarcinoma), were used to investigate the pharmacodynamic interactions resulting from the paired combination of Radium-224 (^224Ra) with a DNA repair inhibitor exemplified by the poly (ADP-ribose) polymerase inhibitors (PARPi); niraparib and olaparib.

[2] = tested on: ES-2 (clear cell carcinoma) ovarian cancer cell line; experiment: CyQuant NF cell proliferation assay (DNA content), single agents and paired combinations, ES-2; type: cell-based
Description: as §1

[3] = SK-OV-3, 72 h, SKOV-3, Day 3, PARPi in paired combination with 224Ra, read-out: Paired combination IC50
[4] = SK-OV-3, 72 h, SKOV-3, Day 3, single agent, read-out: Single agent IC50
[5] = SK-OV-3, 96 h, SKOV-3, Day 4, PARPi in paired combination with 224Ra, read-out: Paired combination IC50
[6] = SK-OV-3, 96 h, SKOV-3, Day 4, single agent, read-out: Single agent IC50
[7] = SK-OV-3, 120 h, SKOV-3, Day 5, PARPi in paired combination with 224Ra, read-out: Paired combination IC50
[8] = SK-OV-3, 120 h, SKOV-3, Day 5, single agent, read-out: Single agent IC50
[9] = 72 h, ES-2, Day 3, PARPi in paired combination with 224Ra, read-out: Paired combination IC50
[10] = 72 h, ES-2, Day 3, single agent, read-out: Single agent IC50
[11] = 96 h, ES-2, Day 4, PARPi in paired combination with 224Ra, read-out: Paired combination IC50
[12] = 96 h, ES-2, Day 4, single agent, read-out: Single agent IC50
[13] = 120 h, ES-2, Day 5, PARPi in paired combination with 224Ra, read-out: Paired combination IC50
[14] = 120 h, ES-2, Day 5, single agent, read-out: Single agent IC50

SMILES	IC50 [1, 3]	IC50 [1, 4]	IC50 [1, 5]	IC50 [1, 6]	IC50 [1, 7]	IC50 [1, 8]	IC50 [2, 9]	IC50 [2, 10]	IC50 [2, 11]	IC50 [2, 12]	IC50 [2, 13]	IC50 [2, 14]
NC(=O)c1cccc2cn(-c3ccc([C@@H]4CCCNC4)cc3)nc12 [Niraparib, niraparib]	2450 nM	5160 nM	430 nM	2830 nM	220 nM	2200 nM	420 nM	690 nM	250 nM	780 nM	360 nM	620 nM
O=C(c1cc(Cc2n[nH]c(=O)c3ccccc23)ccc1F)N1CCN(C(=O)C2CC2)CC1 [Olaparib, olaparib]	10200 nM	21400 nM	2670 nM	23600 nM	810 nM	1830 nM	1430 nM	3510 nM	500 nM	1230 nM	930 nM	2210 nM
